Experimental data reported in patent US11352604B2, “Method of making cardiomyocytes from human pluripotent cells” (Wisconsin Alumni Research Foundation, priority 2016, dated 2022).

Key:
Type in all cases: cell-based, human
hPSC-CMs = test: Immunofluorescence cell size (area of cTnT staining); details: day 30, pI:C-treated vs untreated progenitors
Method: (§1) For internal antigens, cells were rinsed of media two times in PBS, fixed for 10 minutes in 4% paraformaldehyde at RT, rinsed three times again in PBS, then blocked for 1 hour at room temperature (RT) in Licor blocking buffer containing 0.2% Triton x-100 (Sigma). Blocking solution was aspirated and antibodies added overnight at 4° C. in fresh blocking/permeabilization solution. Antibodies used were mouse cardiac troponin T (Thermo Fisher Scientific, 1:200), rabbit WT1 (Abcam 1:200), mouse smooth muscle myosin heavy chain (Abcam, 1:200), goat Jag1 c-terminal domain (1:200 Abcam), MMP1 (Abcam, 1:200), mouse cardiac actin (Sigma, 1:200), rabbit SLC25A4 (Proteintech, 1:100), rabbit DBT (Proteintech, 1:100), rabbit ATP5F1 (Proteintech, 1:100), rabbit Irx4 (Abcam, 1:200), goat nkx2.5 (Santa Cruz, 1:50), mouse connexin 40 (Thermo Fisher Scientific, 1:200), and fibroblast-specific protein (Abcam, 1:100). After primary and secondary antibodies, cells were rinsed two times in PBS with 0.2% triton x-100. Donkey secondaries conjugated to Alexa Fluor dyes were used at 1:1000 and incubated at RT for 1 h. DAPI or Hoechst was used to visualize nuclei. Cells were imaged either on an EVOS system in wells (Thermo Fisher Scientific) or a Leica confocal microscope in cover glass or ibidi 8-well microslides. Image J was used to quantify cell area by outer boundaries of cTnT staining.

[1] = tested on: hPSC-derived cardiac progenitors and hPSC-CMs; test: RT-qPCR gene expression in progenitors or cardiomyocytes
Method: Frozen cell pellets from progenitors or cardiomyocytes in the 19-9-11 iPS cell line were thawed and RNA isolated using RNeasy spin columns with on-column DNase treatment according to the manufacturer's instructions (Qiagen). 500 ng of isolated RNA was used as template for reverse transcription using Biorad iScript RT supermix according to the manufacturer's instructions. 2.5 ng of derived cDNA was then used as template in qPCR with Taqman® primers bearing FAM-MGB dyes for genes of interest in a 20 μL reaction with Taqman® universal PCR supermix and the manufacturer's recommended cycling conditions (Thermo Fisher Scientific).

Jag1 = test: Flow cytometry of day 5 progenitors for Jag1 and Notch2
Description: Flow cytometry for live cell surface antigens was done on dissociated cells of the 19-9-11 iPS cell line with Thy1 biotin (1:200 Biolegend, with Life Technologies streptavidin direct conjugate at 1:1000) and SIRPα (1:200, Biolegend) in K20 and then analyzed at the UWCCC Flow Cytometry Laboratory using a BD LSRII Fortessa flow cytometer. For progenitor flow experiments, cells were dissociated as above for progenitor dissociation, centrifuged at 200×g, subjected to FACS to concentrate cells, and resuspended in 100 μL, of K2 media+rockI/Jag1 PE, BD Biosciences (1:20); Notch2 APC R&D Biosystems (1:10) and analyzed on either a BD FACSariaII cell sorter or BD LSRII Fortessa flow cytometer.

[2] = tested on: day 5 cardiac progenitor cells; test: Propidium iodide cell cycle flow cytometry; details: day 5 cardiac progenitor cells
Method: Propidium iodide staining was performed on ethanol-fixed cells of the 19-9-11 iPS cell line with a low flow rate and linear mode fluorescence according to a previously published protocol (Darzynkiewicz and Juan, 2001).

[3] = tested on: day 5 cardiac progenitors; test: Methylcellulose colony-forming assay; details: 1% methylcellulose, four days, size >35 μm
Method: Day-5 cardiac progenitors from the 19-9-11 cell line were dissociated as above, but then passed 10 times through a syringe with 18 gauge needle and filtered twice through a 45 μm flow cytometry cell strainer. The cells were then counted and 100,000 cells were then mixed with 2 mL of K20 medium plus 10 μM Y-27632 ROCK-inhibitor (Tocris) containing 1% ES-Cult methylcellulose (Stemcell Technologies) and grown in one 6-well of a corning Ultra Low Attachment plate. ImageJ was used to measure colony diameter four days later and single cells observed the first day and after had diameters less than 35 μm.

NFκB signaling = test: Western blot of NFκB and phosphorylated IκB in day 5 cardiac progenitors; details: pI:C days 3-5
Method: Frozen cell pellets from cardiac progenitors in the 19-9-11 iPS cell line were thawed and protein isolated in EBC lysis buffer (Boston BioProducts) supplemented with complete protease inhibitor tablets (Roche) rocking on ice for 1 hour to cause cell lysis. After the observation of lysis material and cell debris, protein/debris mixtures were centrifuged at >18,000×g for 15 minutes at 4° C. The protein-containing supernatant was quantified in a plate reader using the Biorad DC protein assay. 40 to 80 μg of protein was loaded in 6× βmercaptoethanol-containing Laemmli sample buffer (Biorad), boiled for 10 minutes at 95° C., then run on a 4-20% Criterion™ TGX™ gel (Biorad) for 30 minutes at 200 V. Proteins were then transferred at 10 V overnight at 4° C. to Immobilon-FL™ PVDF in a Criterion™ plate transfer cassette in Tris-Glycine transfer buffer (Biorad) with 20% methanol. Membranes were blocked for 1 hour at RT in Licor PBS blocking buffer, and then incubated with primary antibodies overnight 4° C. Antibodies were used at a dilution of 1:1000 (goat anti-Jag1, R&D systems) or 1:3000 (GAPDH, sigma) in Licor PBS blocking buffer. […] Licor secondary donkey anti-rabbit or anti-mouse antibodies were used at 1:15,000 for 1 hour at RT in Licor PBS blocking buffer, and after washing membranes were analyzed in a Licor Odyssey detection system. […]

DBT, ATP5F1, SLC25A4 = test: Quantitative immunostaining of upregulated metabolic proteins; details: hPSC-CMs from pI:C-treated vs untreated progenitors
Method: as §1

[4] = primed vs untreated cardiac progenitors, qPCR

For polyinosinic-polycytidylic acid [pI:C], the hPSC-CM cell size (hPSC-CMs) was “twice as large”, the myofilament gene expression ([1]; day 9 cells, treated vs untreated progenitors) was “increased expression of all myofilament genes studied” and the “expression of cardiomyocyte maturation genes such as cTnI and αMHC” value ([1]; day 20 pPSC-CM, pI:C vs untreated) was “increased the expression levels”. For the same substance, the “expression of cardiac fibroblast genes (Thy1, MMP1, Collagen 1a, WT1)” value ([1]; pI:C treatment vs untreated) was “downregulated”, the “levels of type I HDAC1-3” value [1, 4] was “unchanged to unregulated levels” and the “levels of type II histone deacetylases (HDAC4-7)” value [1, 4] was “universally lower levels”. For the same substance, the “number of Jag1 positive cells and median fluorescence signal-to-noise” value (Jag1) was “increased”, the “fraction of cells in the G2/S phase of the cell cycle” value [2] was “increased” and the colony formation [3] was “abundant multi-cellular colonies”. The “phosphorylated IκB (NFκB pathway activation)” value (NFκB signaling) was “showed expression of phosphorylated (inactivated) inhibitor IκB” and the “expression of DBT, ATP5F1 and SLC25A4” value (DBT, ATP5F1, SLC25A4) was “increased expression”.
